{"source": "paper doi:10.1101/2020.05.21.108605v3", "about": "(biorxiv, 2020)", "assay_type_in_all_cases": "cell-based", "key": {"[1]": {"target": "hNav1.5 (INa) (Homo sapiens, UniProt Q14524)", "sequence (Q14524 whole entry)": "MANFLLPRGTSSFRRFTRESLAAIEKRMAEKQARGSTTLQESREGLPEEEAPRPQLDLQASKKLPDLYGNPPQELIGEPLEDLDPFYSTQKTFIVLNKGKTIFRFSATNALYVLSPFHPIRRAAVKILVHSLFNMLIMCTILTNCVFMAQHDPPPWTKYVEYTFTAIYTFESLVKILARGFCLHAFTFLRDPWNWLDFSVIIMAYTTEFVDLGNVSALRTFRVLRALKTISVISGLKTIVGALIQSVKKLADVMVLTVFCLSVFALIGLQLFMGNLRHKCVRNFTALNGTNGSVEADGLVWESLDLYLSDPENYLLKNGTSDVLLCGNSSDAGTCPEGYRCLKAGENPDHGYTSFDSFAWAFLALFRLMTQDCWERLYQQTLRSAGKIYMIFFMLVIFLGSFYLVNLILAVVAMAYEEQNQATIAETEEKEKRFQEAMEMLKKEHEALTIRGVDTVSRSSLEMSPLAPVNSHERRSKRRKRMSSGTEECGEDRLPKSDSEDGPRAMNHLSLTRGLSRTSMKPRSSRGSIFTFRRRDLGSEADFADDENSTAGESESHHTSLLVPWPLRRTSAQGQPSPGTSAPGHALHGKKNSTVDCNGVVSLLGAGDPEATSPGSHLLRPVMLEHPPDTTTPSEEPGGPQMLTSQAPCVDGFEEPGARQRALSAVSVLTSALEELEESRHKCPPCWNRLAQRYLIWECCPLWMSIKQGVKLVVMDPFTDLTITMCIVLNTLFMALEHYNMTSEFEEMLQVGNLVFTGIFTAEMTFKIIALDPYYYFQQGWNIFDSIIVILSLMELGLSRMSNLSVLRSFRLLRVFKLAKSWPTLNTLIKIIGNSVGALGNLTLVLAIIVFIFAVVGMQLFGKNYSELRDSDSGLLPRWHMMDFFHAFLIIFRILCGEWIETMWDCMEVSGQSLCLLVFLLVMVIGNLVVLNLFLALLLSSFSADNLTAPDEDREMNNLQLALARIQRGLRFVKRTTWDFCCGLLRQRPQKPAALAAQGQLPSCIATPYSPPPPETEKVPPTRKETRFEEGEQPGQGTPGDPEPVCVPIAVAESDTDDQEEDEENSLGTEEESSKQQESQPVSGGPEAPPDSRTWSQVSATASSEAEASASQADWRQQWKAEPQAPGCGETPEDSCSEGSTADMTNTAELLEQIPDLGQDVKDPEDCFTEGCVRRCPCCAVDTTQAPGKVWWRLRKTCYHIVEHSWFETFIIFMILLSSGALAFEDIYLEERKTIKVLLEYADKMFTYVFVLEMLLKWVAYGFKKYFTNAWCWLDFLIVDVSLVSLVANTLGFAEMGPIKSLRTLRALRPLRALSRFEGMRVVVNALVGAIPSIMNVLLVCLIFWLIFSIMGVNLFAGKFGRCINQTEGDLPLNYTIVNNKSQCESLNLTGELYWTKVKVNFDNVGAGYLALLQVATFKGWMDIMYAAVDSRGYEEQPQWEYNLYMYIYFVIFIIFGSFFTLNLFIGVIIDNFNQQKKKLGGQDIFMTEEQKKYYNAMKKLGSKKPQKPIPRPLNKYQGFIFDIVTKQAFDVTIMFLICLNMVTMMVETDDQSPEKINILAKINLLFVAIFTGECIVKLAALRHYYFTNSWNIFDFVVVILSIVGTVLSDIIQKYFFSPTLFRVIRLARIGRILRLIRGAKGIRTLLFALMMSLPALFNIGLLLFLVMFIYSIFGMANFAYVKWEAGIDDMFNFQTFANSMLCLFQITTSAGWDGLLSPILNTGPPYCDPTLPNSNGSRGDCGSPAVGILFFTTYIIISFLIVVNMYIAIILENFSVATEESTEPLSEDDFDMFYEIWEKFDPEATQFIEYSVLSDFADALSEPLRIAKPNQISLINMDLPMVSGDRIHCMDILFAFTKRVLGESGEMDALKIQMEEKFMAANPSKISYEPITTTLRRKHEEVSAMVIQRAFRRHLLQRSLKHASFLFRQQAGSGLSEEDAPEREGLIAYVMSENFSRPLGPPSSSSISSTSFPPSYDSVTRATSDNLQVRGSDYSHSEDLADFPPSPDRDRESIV", "test": "whole-cell patch clamp", "settings": "AZM alone, external pH 7.4"}, "[2]": {"target": "Cav1.2/β2/α2/δ1 (ICa,L) (Homo sapiens, UniProt Q13936)", "test": "perforated whole-cell patch clamp", "settings": "AZM alone, external pH 7.4"}, "[3]": {"target": "KCNQ1/E1 (IKs) (Homo sapiens, UniProt P51787)", "sequence (P51787 whole entry)": "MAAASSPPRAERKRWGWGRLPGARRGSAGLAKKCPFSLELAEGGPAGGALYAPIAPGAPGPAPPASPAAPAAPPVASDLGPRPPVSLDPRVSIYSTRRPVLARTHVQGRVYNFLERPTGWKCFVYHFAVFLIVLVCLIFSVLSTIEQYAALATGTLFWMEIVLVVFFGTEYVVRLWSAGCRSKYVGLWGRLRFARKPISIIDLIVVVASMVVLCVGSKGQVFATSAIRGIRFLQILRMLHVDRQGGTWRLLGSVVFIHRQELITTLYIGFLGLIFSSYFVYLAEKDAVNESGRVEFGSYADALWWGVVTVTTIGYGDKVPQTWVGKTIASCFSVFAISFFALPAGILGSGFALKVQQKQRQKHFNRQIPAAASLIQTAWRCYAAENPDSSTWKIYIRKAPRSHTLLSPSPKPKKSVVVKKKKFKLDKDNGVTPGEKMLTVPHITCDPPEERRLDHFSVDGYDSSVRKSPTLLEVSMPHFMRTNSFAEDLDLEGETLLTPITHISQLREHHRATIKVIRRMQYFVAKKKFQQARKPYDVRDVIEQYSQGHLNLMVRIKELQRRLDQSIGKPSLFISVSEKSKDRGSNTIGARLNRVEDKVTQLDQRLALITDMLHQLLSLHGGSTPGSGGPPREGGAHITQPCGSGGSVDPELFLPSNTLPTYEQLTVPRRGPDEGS", "test": "perforated whole-cell patch clamp", "settings": "AZM alone, external pH 7.4"}, "[4]": {"target": "T1, hERG (IKr) (Homo sapiens, UniProt Q12809)", "T1 sequence (Q12809 whole entry)": "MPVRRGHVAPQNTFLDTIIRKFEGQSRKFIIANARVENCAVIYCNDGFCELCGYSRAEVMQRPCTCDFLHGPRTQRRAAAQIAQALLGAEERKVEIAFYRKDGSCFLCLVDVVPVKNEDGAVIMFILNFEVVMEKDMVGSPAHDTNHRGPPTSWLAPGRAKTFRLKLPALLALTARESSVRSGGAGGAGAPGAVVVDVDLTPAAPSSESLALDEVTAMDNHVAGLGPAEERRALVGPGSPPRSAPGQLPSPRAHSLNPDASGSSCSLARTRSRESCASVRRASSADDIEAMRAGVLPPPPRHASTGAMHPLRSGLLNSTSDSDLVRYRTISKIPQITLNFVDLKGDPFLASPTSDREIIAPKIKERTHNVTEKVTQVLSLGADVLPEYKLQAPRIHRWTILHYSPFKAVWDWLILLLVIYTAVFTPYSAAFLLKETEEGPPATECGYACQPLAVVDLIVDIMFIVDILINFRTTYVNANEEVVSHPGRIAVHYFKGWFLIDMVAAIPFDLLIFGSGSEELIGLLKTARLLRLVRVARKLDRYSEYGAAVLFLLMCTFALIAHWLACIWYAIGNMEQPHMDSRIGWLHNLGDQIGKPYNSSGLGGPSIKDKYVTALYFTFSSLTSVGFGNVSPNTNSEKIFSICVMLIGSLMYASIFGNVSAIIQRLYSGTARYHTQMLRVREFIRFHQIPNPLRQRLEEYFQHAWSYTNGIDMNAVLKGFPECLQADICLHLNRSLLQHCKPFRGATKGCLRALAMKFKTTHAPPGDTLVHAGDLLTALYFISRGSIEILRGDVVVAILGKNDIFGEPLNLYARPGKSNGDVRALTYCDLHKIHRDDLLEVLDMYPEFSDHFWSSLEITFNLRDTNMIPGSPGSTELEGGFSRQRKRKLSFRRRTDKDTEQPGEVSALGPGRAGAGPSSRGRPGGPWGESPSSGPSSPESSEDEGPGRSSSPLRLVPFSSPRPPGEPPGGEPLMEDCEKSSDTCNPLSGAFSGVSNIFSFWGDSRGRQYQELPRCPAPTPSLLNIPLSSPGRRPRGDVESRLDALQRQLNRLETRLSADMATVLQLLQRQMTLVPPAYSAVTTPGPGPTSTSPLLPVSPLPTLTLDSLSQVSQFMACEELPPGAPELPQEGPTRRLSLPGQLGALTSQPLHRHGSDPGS", "test": "whole-cell patch clamp"}, "[5]": {"target": "T2, Kir2.1 (IK1) (Homo sapiens, UniProt P63252)", "T2 sequence (P63252 1-427)": "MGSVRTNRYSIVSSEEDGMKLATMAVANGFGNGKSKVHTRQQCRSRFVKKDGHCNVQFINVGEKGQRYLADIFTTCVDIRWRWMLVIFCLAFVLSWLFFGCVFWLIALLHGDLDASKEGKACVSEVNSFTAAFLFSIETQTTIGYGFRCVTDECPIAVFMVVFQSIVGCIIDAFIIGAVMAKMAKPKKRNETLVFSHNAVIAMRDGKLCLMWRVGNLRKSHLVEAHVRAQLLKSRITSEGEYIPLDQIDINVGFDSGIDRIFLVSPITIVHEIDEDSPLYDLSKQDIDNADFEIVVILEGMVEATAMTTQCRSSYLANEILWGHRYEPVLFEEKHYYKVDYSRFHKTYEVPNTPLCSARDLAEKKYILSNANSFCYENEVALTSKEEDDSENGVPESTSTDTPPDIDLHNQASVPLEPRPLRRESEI", "test": "whole-cell patch clamp, pulse current inhibition"}, "[6]": {"target": "T1, hERG (IKr)", "test": "whole-cell patch clamp, tail current inhibition"}}, "data": [{"smiles": "CC[C@H]1OC(=O)[C@H](C)[C@@H](O[C@H]2C[C@@](C)(OC)[C@@H](O)[C@H](C)O2)[C@H](C)[C@@H](O[C@@H]2O[C@H](C)C[C@H](N(C)C)[C@H]2O)[C@](C)(O)C[C@@H](C)CN(C)[C@H](C)[C@@H](O)[C@]1(C)O", "note": "[azithromycin]", "values": [{"measurement": "% reduction at 100 μM", "setting": "[1]", "value": "< 35", "unit": "%"}, {"measurement": "% reduction at 100 μM", "setting": "[2]", "value": "< 35", "unit": "%"}, {"measurement": "% reduction at 100 μM", "setting": "[3]", "value": "< 35", "unit": "%"}, {"measurement": "% reduction at 100 μM", "setting": "[4]", "value": "< 35", "unit": "%"}]}, {"smiles": "CCN(CCO)CCCC(C)Nc1ccnc2cc(Cl)ccc12", "note": "(stereo not drawn) [hydroxychloroquine]", "values": [{"measurement": "IC50", "setting": "[5]", "value": "34 ± 5", "unit": "µM"}, {"measurement": "IC50", "setting": "[6]", "value": "10 ± 0.6", "unit": "µM"}]}]}
